Numbered stars: 1 amine (or outer) side, 2 acyl side, 3 side chain; on linkers, the order of the positions; unused ones are H or OH. Square brackets hold non-standard residues; d marks the D form. Side chains are listed from the residue outwards. Peptide text beside a SMILES is read from it. * marks the point of attachment. C20 diacid = O=C(O)CCCCCCCCCCCCCCCCCCC(=O)*; γGlu = O=C(O)[C@H](CCC(=O)[*:2])N[*:1]; AEEA = NCCOCCOCC(=O)O; Aib = CC(C)(N)C(=O)O
Assays:
[1] = biological target: T1, human GIP receptor (Homo sapiens, UniProt P48546); experiment: [125I]-GIP binding (SPA), human GIP receptor; settings: read-out: hGIPR Ki, nM (SEM, n)
T1 construct: expressed in transfected cells; crude membranes
T1 sequence (P48546 22-466): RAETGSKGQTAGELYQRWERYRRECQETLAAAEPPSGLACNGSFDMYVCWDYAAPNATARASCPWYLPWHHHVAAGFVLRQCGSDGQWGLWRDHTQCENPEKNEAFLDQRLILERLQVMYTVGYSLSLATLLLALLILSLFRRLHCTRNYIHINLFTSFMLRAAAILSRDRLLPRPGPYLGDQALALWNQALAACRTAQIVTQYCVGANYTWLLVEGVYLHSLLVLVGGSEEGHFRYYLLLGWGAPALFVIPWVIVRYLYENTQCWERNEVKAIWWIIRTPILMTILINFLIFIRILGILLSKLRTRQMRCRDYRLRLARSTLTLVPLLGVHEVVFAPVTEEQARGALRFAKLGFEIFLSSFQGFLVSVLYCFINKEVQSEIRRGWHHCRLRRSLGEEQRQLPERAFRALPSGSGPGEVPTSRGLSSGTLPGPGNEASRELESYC

[2] = biological target: T2, human Gcg receptor (Homo sapiens, UniProt P47871); experiment: [125I]-Glucagon binding (SPA), human Gcg receptor; settings: read-out: hGLcgR Ki, nM (SEM, n)
T2 construct: expressed in transfected cells; crude membranes
T2 sequence (P47871 26-477): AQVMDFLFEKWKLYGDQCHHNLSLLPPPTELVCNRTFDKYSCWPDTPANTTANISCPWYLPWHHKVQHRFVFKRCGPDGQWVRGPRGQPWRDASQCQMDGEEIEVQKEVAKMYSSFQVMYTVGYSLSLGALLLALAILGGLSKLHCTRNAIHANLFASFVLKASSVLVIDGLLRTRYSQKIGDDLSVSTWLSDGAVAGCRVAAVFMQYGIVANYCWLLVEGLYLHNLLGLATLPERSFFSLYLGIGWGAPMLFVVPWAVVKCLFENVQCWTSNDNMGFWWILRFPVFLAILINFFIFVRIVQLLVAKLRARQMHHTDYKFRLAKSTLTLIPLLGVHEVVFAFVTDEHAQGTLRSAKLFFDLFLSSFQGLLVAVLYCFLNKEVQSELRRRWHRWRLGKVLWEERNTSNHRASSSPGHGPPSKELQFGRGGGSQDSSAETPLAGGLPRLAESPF
Summary of the method: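 Cell pellets were lysed in hypotonic Tris buffer, pH 7.5, homogenized, and spun at low then high speed to give crude membranes. Ki was derived from the fitted IC50.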

[3] = biological target: human GLP-1 receptor (GLP-1R) (Homo sapiens, UniProt P43220); experiment: cAMP pharmacological functional assay in presence of casein, hGLP-1R; assay type: cell-based; settings: HEK293 cells expressing hGLP-1R, 0.1% Casein, geometric mean; read-out: hGLP1R cAMP Rel EC50 nM (SEM, n)
Sequence of human GLP-1 receptor (GLP-1R) (P43220 24-463): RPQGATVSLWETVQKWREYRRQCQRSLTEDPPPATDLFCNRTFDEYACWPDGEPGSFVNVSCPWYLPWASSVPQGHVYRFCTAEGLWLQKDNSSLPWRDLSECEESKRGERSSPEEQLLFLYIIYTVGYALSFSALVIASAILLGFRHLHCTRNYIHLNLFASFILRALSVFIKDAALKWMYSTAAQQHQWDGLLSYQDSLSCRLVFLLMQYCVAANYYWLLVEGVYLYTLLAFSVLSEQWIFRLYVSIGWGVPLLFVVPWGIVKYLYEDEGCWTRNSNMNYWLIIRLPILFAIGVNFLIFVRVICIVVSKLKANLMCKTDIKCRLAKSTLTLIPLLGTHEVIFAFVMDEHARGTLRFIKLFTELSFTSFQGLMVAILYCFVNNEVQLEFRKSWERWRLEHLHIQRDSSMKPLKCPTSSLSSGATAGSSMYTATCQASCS

[4] = biological target: human GLP-1R (Homo sapiens, UniProt P43220); experiment: [125I]-GLP-1 binding (SPA), human GLP-1 receptor; parameters: expressed in transfected cells; crude membranes; settings: read-out: hGLP1R Ki, (nM) (SEM, n)
Sequence of human GLP-1R (P43220 24-463): as above
Summary of the method: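 Frozen cell pellets are lysed on ice in hypotonic Tris buffer, pH 7.5, homogenized, and centrifuged to a membrane pellet resuspended at about 1 to 3 mg/mL. Binding is then measured in HEPES-based buffer at pH 7.4, and curves are fitted to give IC50 and Ki.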

[5] = biological target: T3, gastric inhibitory peptide receptor (GIPR) (Homo sapiens, UniProt P48546); experiment: cAMP pharmacological functional assay in presence of casein, hGIPR; assay type: cell-based; settings: HEK293 cells expressing hGIPR, 0.1% Casein, geometric mean; read-out: hGIPR cAMP Rel EC50 nM (SEM, n)
T3 sequence (P48546 22-466): T1 sequence (P48546 22-466)

SMILES | Ki [1] | Ki [2] | EC50 [3] | Ki [4] | EC50 [5]
CC[C@H](C)[C@H](NC(=O)[C@H](CCCCN)NC(=O)[C@H](CC(=O)O)NC(=O)[C@H](CC(C)C)NC(=O)[C@H](CCCCNC(=O)COCCOCCNC(=O)COCCOCCNC(=O)CC[C@H](NC(=O)CCCCCCCCCCCCCCCCCCC(=O)O)C(=O)O)NC(=O)[C@@H](NC(=O)[C@H](CO)NC(=O)[C@H](Cc1ccc(O)cc1)NC(=O)[C@H](CC(=O)O)NC(=O)[C@H](CO)NC(=O)[C@@H](NC(=O)[C@H](Cc1ccccc1)NC(=O)[C@@H](NC(=O)CNC(=O)[C@H](CCC(=O)O)NC(=O)C(C)(C)NC(=O)[C@@H](N)Cc1ccc(O)cc1)[C@@H](C)O)[C@@H](C)O)[C@@H](C)CC)C(=O)N[C@@H](C)C(=O)N[C@@H](CCC(N)=O)C(=O)NC(C)(C)C(=O)N[C@@H](C)C(=O)N[C@@H](Cc1ccccc1)C(=O)N[C@H](C(=O)N[C@@H](CCC(=O)O)C(=O)N[C@@H](Cc1ccc(O)cc1)C(=O)N[C@@H](CC(C)C)C(=O)N[C@H](C(=O)N[C@@H](CCC(=O)O)C(=O)NCC(=O)NCC(=O)N1CCC[C@H]1C(=O)N[C@@H](CO)C(=O)N[C@@H](CO)C(=O)NCC(=O)N[C@@H](C)C(=O)N1CCC[C@H]1C(=O)N1CCC[C@H]1C(=O)N1CCC[C@H]1C(=O)N[C@@H](CO)C(N)=O)[C@@H](C)CC)[C@@H](C)CC [Example 26] (H-Y[Aib]EGTFTSDYSIK([AEEA-AEEA-γGlu-C20 diacid])LDKIAQ[Aib]AFIEYLIEGGPSSGAPPPS-NH2) | 0.176 nM | > 960 nM | 0.293 nM | 4.22 nM | 0.251 nM
CC[C@H](C)[C@H](NC(=O)[C@H](CCCCN)NC(=O)[C@H](CC(=O)O)NC(=O)[C@H](CCCCNC(=O)COCCOCCNC(=O)COCCOCCNC(=O)CC[C@H](NC(=O)CCCCCCCCCCCCCCCCCCC(=O)O)C(=O)O)NC(=O)[C@H](CC(C)C)NC(=O)[C@@H](NC(=O)[C@H](CO)NC(=O)[C@H](Cc1ccc(O)cc1)NC(=O)[C@H](CC(=O)O)NC(=O)[C@H](CO)NC(=O)[C@@H](NC(=O)[C@H](Cc1ccccc1)NC(=O)[C@@H](NC(=O)CNC(=O)[C@H](CCC(=O)O)NC(=O)C(C)(C)NC(=O)[C@@H](N)Cc1ccc(O)cc1)[C@@H](C)O)[C@@H](C)O)[C@@H](C)CC)C(=O)N[C@@H](C)C(=O)N[C@@H](CCC(N)=O)C(=O)NC(C)(C)C(=O)N[C@@H](C)C(=O)N[C@@H](Cc1ccccc1)C(=O)N[C@H](C(=O)N[C@@H](CCC(=O)O)C(=O)N[C@@H](Cc1ccc(O)cc1)C(=O)N[C@@H](CC(C)C)C(=O)N[C@H](C(=O)N[C@@H](CCC(=O)O)C(=O)NCC(=O)NCC(=O)N1CCC[C@H]1C(=O)N[C@@H](CO)C(=O)N[C@@H](CO)C(=O)NCC(=O)N[C@@H](C)C(=O)N1CCC[C@H]1C(=O)N1CCC[C@H]1C(=O)N1CCC[C@H]1C(=O)N[C@@H](CO)C(N)=O)[C@@H](C)CC)[C@@H](C)CC [Example 27] (H-Y[Aib]EGTFTSDYSILK([AEEA-AEEA-γGlu-C20 diacid])DKIAQ[Aib]AFIEYLIEGGPSSGAPPPS-NH2) | 0.103 nM | 315 nM | 0.557 nM | 3.68 nM | 0.0789 nM
CC[C@H](C)[C@H](NC(=O)[C@H](CCCCN)NC(=O)[C@H](CCCCNC(=O)COCCOCCNC(=O)COCCOCCNC(=O)CC[C@H](NC(=O)CCCCCCCCCCCCCCCCCCC(=O)O)C(=O)O)NC(=O)[C@H](CC(C)C)NC(=O)[C@H](CC(C)C)NC(=O)[C@@H](NC(=O)[C@H](CO)NC(=O)[C@H](Cc1ccc(O)cc1)NC(=O)[C@H](CC(=O)O)NC(=O)[C@H](CO)NC(=O)[C@@H](NC(=O)[C@H](Cc1ccccc1)NC(=O)[C@@H](NC(=O)CNC(=O)[C@H](CCC(=O)O)NC(=O)C(C)(C)NC(=O)[C@@H](N)Cc1ccc(O)cc1)[C@@H](C)O)[C@@H](C)O)[C@@H](C)CC)C(=O)N[C@@H](C)C(=O)N[C@@H](CCC(N)=O)C(=O)NC(C)(C)C(=O)N[C@@H](C)C(=O)N[C@@H](Cc1ccccc1)C(=O)N[C@H](C(=O)N[C@@H](CCC(=O)O)C(=O)N[C@@H](Cc1ccc(O)cc1)C(=O)N[C@@H](CC(C)C)C(=O)N[C@H](C(=O)N[C@@H](CCC(=O)O)C(=O)NCC(=O)NCC(=O)N1CCC[C@H]1C(=O)N[C@@H](CO)C(=O)N[C@@H](CO)C(=O)NCC(=O)N[C@@H](C)C(=O)N1CCC[C@H]1C(=O)N1CCC[C@H]1C(=O)N1CCC[C@H]1C(=O)N[C@@H](CO)C(N)=O)[C@@H](C)CC)[C@@H](C)CC [Example 28] (H-Y[Aib]EGTFTSDYSILLK([AEEA-AEEA-γGlu-C20 diacid])KIAQ[Aib]AFIEYLIEGGPSSGAPPPS-NH2) | 0.24 nM | > 902 nM | 32.7 nM | 21.1 nM | 1.66 nM
CC[C@H](C)[C@H](NC(=O)[C@H](CCCCNC(=O)COCCOCCNC(=O)COCCOCCNC(=O)CC[C@H](NC(=O)CCCCCCCCCCCCCCCCCCC(=O)O)C(=O)O)NC(=O)[C@H](CC(=O)O)NC(=O)[C@H](CC(C)C)NC(=O)[C@H](CC(C)C)NC(=O)[C@@H](NC(=O)[C@H](CO)NC(=O)[C@H](Cc1ccc(O)cc1)NC(=O)[C@H](CC(=O)O)NC(=O)[C@H](CO)NC(=O)[C@@H](NC(=O)[C@H](Cc1ccccc1)NC(=O)[C@@H](NC(=O)CNC(=O)[C@H](CCC(=O)O)NC(=O)C(C)(C)NC(=O)[C@@H](N)Cc1ccc(O)cc1)[C@@H](C)O)[C@@H](C)O)[C@@H](C)CC)C(=O)N[C@@H](C)C(=O)N[C@@H](CCC(N)=O)C(=O)NC(C)(C)C(=O)N[C@@H](C)C(=O)N[C@@H](Cc1ccccc1)C(=O)N[C@H](C(=O)N[C@@H](CCC(=O)O)C(=O)N[C@@H](Cc1ccc(O)cc1)C(=O)N[C@@H](CC(C)C)C(=O)N[C@H](C(=O)N[C@@H](CCC(=O)O)C(=O)NCC(=O)NCC(=O)N1CCC[C@H]1C(=O)N[C@@H](CO)C(=O)N[C@@H](CO)C(=O)NCC(=O)N[C@@H](C)C(=O)N1CCC[C@H]1C(=O)N1CCC[C@H]1C(=O)N1CCC[C@H]1C(=O)N[C@@H](CO)C(N)=O)[C@@H](C)CC)[C@@H](C)CC [Example 29] (H-Y[Aib]EGTFTSDYSILLDK([AEEA-AEEA-γGlu-C20 diacid])IAQ[Aib]AFIEYLIEGGPSSGAPPPS-NH2) | 0.377 nM | 132 nM | 0.999 nM | 8 nM | 0.32 nM
CC[C@H](C)[C@H](NC(=O)[C@H](CC(C)C)NC(=O)[C@H](Cc1ccc(O)cc1)NC(=O)[C@H](CCC(=O)O)NC(=O)[C@@H](NC(=O)[C@H](Cc1ccccc1)NC(=O)[C@H](C)NC(=O)C(C)(C)NC(=O)[C@H](CCC(N)=O)NC(=O)[C@H](CCCCNC(=O)COCCOCCNC(=O)COCCOCCNC(=O)CC[C@H](NC(=O)CCCCCCCCCCCCCCCCCCC(=O)O)C(=O)O)NC(=O)[C@@H](NC(=O)[C@H](CCCCN)NC(=O)[C@H](CC(=O)O)NC(=O)[C@H](CC(C)C)NC(=O)[C@H](CC(C)C)NC(=O)[C@@H](NC(=O)[C@H](CO)NC(=O)[C@H](Cc1ccc(O)cc1)NC(=O)[C@H](CC(=O)O)NC(=O)[C@H](CO)NC(=O)[C@@H](NC(=O)[C@H](Cc1ccccc1)NC(=O)[C@@H](NC(=O)CNC(=O)[C@H](CCC(=O)O)NC(=O)C(C)(C)NC(=O)[C@@H](N)Cc1ccc(O)cc1)[C@@H](C)O)[C@@H](C)O)[C@@H](C)CC)[C@@H](C)CC)[C@@H](C)CC)C(=O)N[C@@H](CCC(=O)O)C(=O)NCC(=O)NCC(=O)N1CCC[C@H]1C(=O)N[C@@H](CO)C(=O)N[C@@H](CO)C(=O)NCC(=O)N[C@@H](C)C(=O)N1CCC[C@H]1C(=O)N1CCC[C@H]1C(=O)N1CCC[C@H]1C(=O)N[C@@H](CO)C(N)=O [Example 30] (H-Y[Aib]EGTFTSDYSILLDKIK([AEEA-AEEA-γGlu-C20 diacid])Q[Aib]AFIEYLIEGGPSSGAPPPS-NH2) | 0.151 nM | 123 nM | 1.84 nM | 6.2 nM | 0.114 nM
